Experimental data: US7507727B2, “Substituted quinobenzoxazine analogs and methods of using thereof” (Cylene Pharmaceuticals, Inc., priority 2003, dated 2009)

Biological target: c-Myc template DNA (c-myc quadruplex)
Assay: Quadruplex binding / stop assay (Taq polymerase arrest, capillary electrophoresis)
Conditions: read-out: Stop Data c-Myc μM; concentration at which 50% of the DNA was arrested (arrested:full-length 1:1)
Excerpt: A high throughput polymerase arrest assay has been developed. The assay comprises contacting a template nucleic acid, often DNA, with a primer, which also is often DNA; contacting the primer/template complex with a compound described herein (also referred to as a “test compound”); contacting the primer/template complex with a polymerase; and separating reaction products. The assay often includes the step of denaturing the primer/template complex mixture and then renaturing the complex, which often is carried out before a test molecule is added to the system. Multiple assays often are carried out using varying concentrations of a test compound, such that an IC50 value can be obtained, for example. The reaction products often include extended primers of different lengths.
Thus, the reaction mixture often includes at least two reaction products when a test compound interacts with a quadruplex structure in the template, one having a completely extended primer and one having an incompletely extended primer, and these two reaction products are separated. The products may be separated using any convenient separation method, such as mass spectrometry and in one embodiment, capillary electrophoresis.
In an embodiment, a primer oligonucleotide covalently linked to a fluorescent label is contacted with template DNA. The resulting complex is contacted with a test molecule and then contacted with a polymerase capable of extending the primer. The reaction products then are separated and detected by capillary electrophoresis. A longer primer sequence was used for practicing this embodiment as compared to embodiments where the primer includes no covalently-linked fluorophore or where capillary electrophoresis is not utilized for separation. Deoxynucleotides are added at any stage of the assay before the separation, often when the primer is contacted with the template DNA. The template DNA/primer complex often is denatured (e.g., by increasing the temperature of the system) and then renatured (e.g., by cooling the system) before a test compound is added).
The mixture was denatured at 95° C. for 5 minutes and, after cooling down to room temperature, was incubated at 37° C. for 15 minutes.
After cooling down to room temperature, 1 mM KCl and the test compound (various concentrations) were added and the mixture incubated for 15 minutes at room temperature. The primer extension was performed by adding 10 mM KCl and Taq DNA Polymerase (2.5 U/reaction, Promega) and incubating at 70° C. for 30 minutes. The reaction was stopped by adding 1 μl of the reaction mixture to 10 μl Hi-Di Formamide mixed and 0.25 μl LIZ120 size standard. Hi-Di Formamide and LIZ120 size standard were purchased from Applied Biosystems.
The partially extended quadruplex arrest product was between 61 or 62 bases long and the full-length extended product was 99 bases long. The products were separated and analyzed using capillary electrophoresis. Capillary electrophoresis was performed using an ABI PRISM 3100-Avant Genetic Analyzer.
Stop Assays. […] A fluorescently labeled primer DNA is then annealed to the 3′ end of the template DNA. A DNA polymerase such as Taq polymerase is then introduced to synthesize a complementary strand of DNA by extending from the fluorescently labeled primer. When the progress of the Taq polymerase is unhindered, it synthesizes a full-length copy of the template.
These products are visualized by capillary electrophoresis.

SMILES	IC50 [µM]
CN1CCCC1CCNc1c(F)cc2c(=O)c(C(=O)NCCCn3ccnc3)cn3c2c1Oc1cc2c(cc1-3)oc1ccccc12 (centres unmarked) [compound 159]	1.75
O=C(NCCCN1CCOCC1)c1cn2c3c(c(NCCN4CCCC4)c(F)cc3c1=O)Oc1cc3c(cc1-2)oc1ccccc13 [compound 160]	1.75
CN(C)CCCCNC(=O)c1cn2c3c(c(NCCN4CCCC4)c(F)cc3c1=O)Oc1cc3c(cc1-2)oc1ccccc13 [compound 161]	1.75
CN(C)CCCCNc1c(F)cc2c(=O)c(C(=O)NCCCN3CCOCC3)cn3c2c1Oc1cc2c(cc1-3)oc1ccccc12 [compound 162]	1.75
CN(C)CCCCNc1c(F)cc2c(=O)c(C(=O)NCCN3CCOCC3)cn3c2c1Oc1cc2c(cc1-3)oc1ccccc12 [compound 163]	1.75
CN(C)CCCCNc1c(F)cc2c(=O)c(C(=O)N3CCN(C)CC3)cn3c2c1Oc1cc2c(cc1-3)oc1ccccc12 [compound 164]	1.75
CN1CCN(CCCNC(=O)c2cn3c4cc5c(=O)c6ccccc6c(=O)c5cc4oc4c(NCCC5CCCN5C)c(F)cc(c2=O)c43)CC1 (centres unmarked) [compound 165]	1.75
O=C(NCCCN1CCOCC1)c1cn2c3cc4c(=O)c5ccccc5c(=O)c4cc3oc3c(NCCCN4CCOCC4)c(F)cc(c1=O)c32 [compound 166]	1.75
CN(C)CCCCNC(=O)c1cn2c3cc4c(=O)c5ccccc5c(=O)c4cc3oc3c(NCCCN4CCOCC4)c(F)cc(c1=O)c32 [compound 167]	1.75
CN1CCCC1CCNC(=O)c1cn2c3cc4c(=O)c5ccccc5c(=O)c4cc3oc3c(N4CCC(NC(=O)OC(C)(C)C)C4)c(F)cc(c1=O)c32 (centres unmarked) [compound 168]	1.75
CN1CCN(CCCNC(=O)c2cn3c4cc5c(=O)c6ccccc6c(=O)c5cc4oc4c(N5CCC(NC(=O)OC(C)(C)C)C5)c(F)cc(c2=O)c43)CC1 (centres unmarked) [compound 169]	1.75
CN1CCN(CCCNc2c(F)cc3c(=O)c(C(=O)N4CCN(C)CC4)cn4c5cc6c(=O)c7ccccc7c(=O)c6cc5oc2c34)CC1 [compound 170]	1.75
CN(C)CCCCNc1c(F)cc2c(=O)c(C(=O)NCCCN3CCN(C)CC3)cn3c4cc5c(=O)c6ccccc6c(=O)c5cc4oc1c23 [compound 171]	1.75
CN1CCN(c2c(F)cc3c(=O)c(C(=O)NCCCN4CCOCC4)cn4c5cc6c(=O)c7ccccc7c(=O)c6cc5oc2c34)CC1 [compound 172]	1.75
CN1CCN(CCCNC(=O)c2cn3c4c(c(N5CC[C@@H](NC(=O)CCN6CCN(C)CC6)C5)c(F)cc4c2=O)Oc2cc4c(cc2-3)oc2ccccc24)CC1 [compound 173]	1.75
CN1CCN(CCCNC(=O)c2cn3c4c(c(N5CC[C@@H](NC(=O)CCN6CCCC6)C5)c(F)cc4c2=O)Oc2cc4c(cc2-3)oc2ccccc24)CC1 [compound 174]	1.75
CN(C)CCC(=O)N[C@@H]1CCN(c2c(F)cc3c(=O)c(C(=O)NCCCN4CCN(C)CC4)cn4c3c2Oc2cc3c(cc2-4)oc2ccccc23)C1 [compound 175]	1.75
CN(C)CCCCNC(=O)c1cn2c3c(c(N4CC[C@@H](NC(=O)CCN5CCOCC5)C4)c(F)cc3c1=O)Oc1cc3c(cc1-2)oc1ccccc13 [compound 176]	1.75
CN(C)CCCCNCCC(=O)N[C@@H]1CCN(c2c(F)cc3c(=O)c(C(=O)N4CCOCC4)cn4c3c2Oc2cc3c(cc2-4)oc2ccccc23)C1 [compound 177]	1.75
CC(=O)N[C@@H]1CCN(c2c(F)cc3c(=O)c(C(=O)NCCCN4CCOCC4)cn4c3c2Oc2cc3c(cc2-4)oc2ccccc23)C1 [compound 178]	1.75

SMILES	IC50 [µM]
CC(=O)N[C@@H]1CCN(c2c(F)cc3c(=O)c(C(=O)NCCCN4CCN(C)CC4)cn4c3c2Oc2cc3c(cc2-4)oc2ccccc23)C1 [compound 179]	1.75
O=C(CNCCN1CCCC1)N[C@@H]1CCN(c2c(F)cc3c(=O)c(C(=O)N4CCOCC4)cn4c3c2Oc2cc3c(cc2-4)oc2ccccc23)C1 [compound 180]	1.75
CC(C)(C)OC(=O)NC1CCN(c2c(F)cc3c(=O)c(C(=O)NCCc4cnc[nH]4)cn4c3c2Oc2cc3ccccc3cc2-4)C1 (centres unmarked) [compound 181]	1.75
CC1(C)CC(NC(=O)c2cn3c4c(c(N5CCC(NC(=O)OC(C)(C)C)C5)c(F)cc4c2=O)Oc2cc4ccccc4cc2-3)CC(C)(C)N1 (centres unmarked) [compound 182]	1.75
CC(C)(C)OC(=O)NC1CCN(c2c(F)cc3c(=O)c(C(=O)NCCc4ccc(N)cc4)cn4c3c2Oc2cc3ccccc3cc2-4)C1 (centres unmarked) [compound 183]	1.75
CC(C)(C)OC(=O)NC1CCN(c2c(F)cc3c(=O)c(C(=O)NCc4nc5ccccc5[nH]4)cn4c3c2Oc2cc3ccccc3cc2-4)C1 (centres unmarked) [compound 184]	1.75
CC1CCCCN1CCCNC(=O)c1cn2c3c(c(N4CCC(NC(=O)OC(C)(C)C)C4)c(F)cc3c1=O)Oc1cc3ccccc3cc1-2 (centres unmarked) [compound 185]	1.75
CC(C)CC(C)(C)CNC(=O)c1cn2c3c(c(N4CCC(NC(=O)OC(C)(C)C)C4)c(F)cc3c1=O)Oc1cc3ccccc3cc1-2 (centres unmarked) [compound 186]	1.75
Cc1ncn(C(=O)c2cn3c4c(c(N5CCC(NC(=O)OC(C)(C)C)C5)c(F)cc4c2=O)Oc2cc4ccccc4cc2-3)c1CO (centres unmarked) [compound 187]	1.75
CC(C)(C)OC(=O)NC1CCN(c2c(F)cc3c(=O)c(C(=O)NCC[N+](C)(C)C)cn4c3c2Oc2cc3ccccc3cc2-4)C1 (centres unmarked) [compound 188]	1.75
CN1CCCC1CCNC(=O)c1cn2c3c(c(N)c(F)c(N4CC[C@H](N)C4)c3c1=O)Oc1cc3ccccc3cc1-2 (some centres unmarked) [compound 189]	1.75
CN(C)CCCCNC(=O)c1cn2c3c(c(N)c(F)c(N4CC[C@H](N)C4)c3c1=O)Oc1cc3ccccc3cc1-2 [compound 190]	1.75
CN1CCCC1CCNC(=O)c1cn2c3c(c(N)c(F)c(NCCCN4CCOCC4)c3c1=O)Oc1cc3ccccc3cc1-2 (centres unmarked) [compound 191]	1.75
CN(C)CCCCNC(=O)c1cn2c3c(c(N)c(F)c(NCCCN4CCOCC4)c3c1=O)Oc1cc3ccccc3cc1-2 [compound 192]	1.75
Nc1ccc(CCNC(=O)c2cn3c4c(c(N5CCC(N)C5)c(F)cc4c2=O)Oc2cc4ccccc4cc2-3)cc1 (centres unmarked) [compound 193]	1.75
CN(C)CCN(Cc1ccccc1)C(=O)c1cn2c3c(c(N4CCC(N)C4)c(F)cc3c1=O)Oc1cc3ccccc3cc1-2 (centres unmarked) [compound 194]	1.75
NC1CCN(c2c(F)cc3c(=O)c(C(=O)NCCN4CCCCC4)cn4c3c2Oc2cc3ccccc3cc2-4)C1 (centres unmarked) [compound 195]	1.75
NC1CCN(c2c(F)cc3c(=O)c(C(=O)NCc4nc5ccccc5[nH]4)cn4c3c2Oc2cc3ccccc3cc2-4)C1 (centres unmarked) [compound 196]	1.75
CN1CCCN(C(=O)c2cn3c4c(c(N5CCC(N)C5)c(F)cc4c2=O)Oc2cc4ccccc4cc2-3)CC1 (centres unmarked) [compound 197]	1.75
CN1CCC(N(C)C(=O)c2cn3c4c(c(N5CCC(N)C5)c(F)cc4c2=O)Oc2cc4ccccc4cc2-3)CC1 (centres unmarked) [compound 198]	1.75

SMILES	IC50 [µM]
Cc1ncn(C(=O)c2cn3c4c(c(N5CCC(N)C5)c(F)cc4c2=O)Oc2cc4ccccc4cc2-3)c1CO (centres unmarked) [compound 199]	1.75
NC1CCN(c2c(F)cc3c(=O)c(C(=O)NCCCn4ccnc4)cn4c3c2Oc2cc3ccccc3cc2-4)C1 (centres unmarked) [compound 200]	1.75
CC(=O)N1CCN(C(=O)c2cn3c4c(c(N5CCC(N)C5)c(F)cc4c2=O)Oc2cc4ccccc4cc2-3)CC1 (centres unmarked) [compound 201]	1.75
CC(C)(C)OC(=O)N[C@H]1CCN(c2c(F)cc3c(=O)c(C(=O)NCCN4CCCC4)cn4c5cc6c(cc5oc2c34)c(=O)c2ccccc26)C1 [compound 202]	1.75
O=C(NCCCN1CCOCC1)c1cn2c3cc4c(cc3oc3c(NCCCN5CCOCC5)c(F)cc(c1=O)c32)c(=O)c1ccccc14 [compound 203]	1.75
CC(C)(C)OC(=O)N[C@H]1CCN(c2c(F)cc3c(=O)c(C(=O)NCCCN4CCOCC4)cn4c5cc6c(cc5oc2c34)c(=O)c2ccccc26)C1 [compound 204]	1.75
O=C(NCCCN1CCOCC1)c1cn2c3cc4c(cc3oc3c(NCCN5CCOCC5)c(F)cc(c1=O)c32)c(=O)c1ccccc14 [compound 205]	1.75
CN1CCCC1CCNc1c(F)cc2c(=O)c(C(=O)N3CC[C@H](NC(=O)OC(C)(C)C)C3)cn3c4cc5c(cc4oc1c23)c(=O)c1ccccc15 (some centres unmarked) [compound 206]	1.75
CN(C)CCCCNc1c(F)cc2c(=O)c(C(=O)N3CC[C@H](NC(=O)OC(C)(C)C)C3)cn3c4cc5c(cc4oc1c23)c(=O)c1ccccc15 [compound 207]	1.75
CC(C)(C)OC(=O)N[C@H]1CCN(c2c(F)cc3c(=O)c(C(=O)NCCN4CCOCC4)cn4c5cc6c(cc5oc2c34)c(=O)c2ccccc26)C1 [compound 208]	1.75
CN1CCN(CCCNC(=O)c2cn3c4cc5c(cc4oc4c(NCCCN6CCOCC6)c(F)cc(c2=O)c43)c(=O)c2ccccc25)CC1 [compound 209]	1.75
CC(C)(C)OC(=O)N[C@@H]1CCN(c2c(F)cc3c(=O)c(C(=O)NCCCCN)cn4c3c2Oc2cc3ccccc3cc2-4)C1 [compound 210]	1.75
CN(C)/C=N/CCCNC(=O)c1cn2c3c(c(N4CC[C@@H](NC(=O)OC(C)(C)C)C4)c(F)cc3c1=O)Oc1cc3ccccc3cc1-2 [compound 211]	1.75
CN(C)/C=N/CCCCNC(=O)c1cn2c3c(c(N4CC[C@@H](NC(=O)OC(C)(C)C)C4)c(F)cc3c1=O)Oc1cc3ccccc3cc1-2 [compound 212]	1.75
CN1CCCC1CCNC(=O)c1cn2c3c(c(N4CCC(NC(=O)OC(C)(C)C)C4)c(F)cc3c1=O)Oc1cc3ccccc3cc1-2 (centres unmarked) [compound 213]	1.75
N[C@H]1CCN(C(=O)c2cn3c4cc5c(cc4oc4c(NCCN6CCCC6)c(F)cc(c2=O)c43)c(=O)c2ccccc25)C1 [compound 214]	1.75
CN1CCCC1CCNc1c(F)cc2c(=O)c(C(=O)N3CC[C@H](N)C3)cn3c4cc5c(cc4oc1c23)c(=O)c1ccccc15 (some centres unmarked) [compound 215]	1.75
N[C@H]1CCN(C(=O)c2cn3c4cc5c(cc4oc4c(NCCCN6CCOCC6)c(F)cc(c2=O)c43)c(=O)c2ccccc25)C1 [compound 216]	1.75
CN(C)CCCCNc1c(F)cc2c(=O)c(C(=O)N3CC[C@H](N)C3)cn3c4cc5c(cc4oc1c23)c(=O)c1ccccc15 [compound 217]	1.75
